Active and inactive are the calls of the source. The calls are words filed in the database; no cut-off is given here.
Experiments:
Mus musculus [1] = assay: Anti-inflammatory activity against MOG35-55-induced experimental autoimmune encephalomyelitis C57BL/6 mouse model assessed as fold change in HIF1A gene expression in brain at 300 mg/kg/day, ig for 14 days starting from 12th day of immunization by RT-qPCR analysis relative to control; type: functional; conditions: time 14 day
Mus musculus [2] = assay: Anti-inflammatory activity against MOG35-55-induced experimental autoimmune encephalomyelitis C57BL/6 mouse model assessed as fold change in C1S gene expression in brain at 300 mg/kg/day, ig for 14 days starting from 12th day of immunization by RT-qPCR analysis relative to control; type: functional; conditions: time 14 day
Mus musculus [3] = assay: Anti-inflammatory activity against MOG35-55-induced experimental autoimmune encephalomyelitis C57BL/6 mouse model assessed as fold change in MAG gene expression in brain at 300 mg/kg/day, ig for 14 days starting from 12th day of immunization by RT-qPCR analysis relative to control; type: functional; conditions: time 14 day
Mus musculus [4] = assay: Anti-inflammatory activity against MOG35-55-induced experimental autoimmune encephalomyelitis C57BL/6 mouse model assessed as fold change in BCL2 gene expression in brain at 300 mg/kg/day, ig for 14 days starting from 12th day of immunization by RT-qPCR analysis relative to control; type: functional; conditions: time 14 day
Mus musculus [5] = assay: Anti-inflammatory activity against MOG35-55-induced experimental autoimmune encephalomyelitis C57BL/6 mouse model assessed as fold change in C1S gene expression in brain at 600 mg/kg/day, ig for 14 days starting from 12th day of immunization by RT-qPCR analysis relative to control; type: functional; conditions: time 14 day
Mus musculus [6] = assay: Anti-inflammatory activity against MOG35-55-induced experimental autoimmune encephalomyelitis C57BL/6 mouse model assessed as fold change in IL6 gene expression in brain at 300 mg/kg/day, ig for 14 days starting from 12th day of immunization by RT-qPCR analysis relative to control; type: functional; conditions: time 14 day
Mus musculus [7] = assay: Anti-inflammatory activity against MOG35-55-induced experimental autoimmune encephalomyelitis C57BL/6 mouse model assessed as reduction in EAE symptoms by measuring reduction in clinical score at 300 to 600 mg/kg/day, ig starting from 12th day of immunization and measured on day 14 post-immunization; type: functional, organism-based; conditions: dose 300-600 mg/kg/day, time 2.0 day
Mus musculus [8] = assay: Anti-inflammatory activity against MOG35-55-induced experimental autoimmune encephalomyelitis C57BL/6 mouse model assessed as methylation of CpG sites of […] gene promoter in brain at 600 mg/kg, ig for 14 days starting from 12th day of immunization by PCR analysis (reference value: 13.1 +/-8%); type: functional; conditions: time 14 day
Mus musculus [9] = assay: Anti-inflammatory activity against MOG35-55-induced experimental autoimmune encephalomyelitis C57BL/6 mouse model assessed as methylation of CpG sites of TGFB1 gene promoter in brain at 600 mg/kg, ig for 14 days starting from 12th day of immunization by PCR analysis (reference value: 18.3 +/-4%); type: functional; conditions: time 14 day
Mus musculus [10] = assay: Anti-inflammatory activity against MOG35-55-induced experimental autoimmune encephalomyelitis C57BL/6 mouse model assessed as fold change in MMP9 gene expression in brain at 600 mg/kg/day, ig for 14 days starting from 12th day of immunization by RT-qPCR analysis relative to control; type: functional; conditions: time 14 day
Mus musculus [11] = assay: Anti-inflammatory activity against MOG35-55-induced experimental autoimmune encephalomyelitis C57BL/6 mouse model assessed as reduction in serum monokines level by measuring reduction in IL-1B level at 600 mg/kg/day, ig for 14 days starting from 12th day of immunization by ELISA; type: functional, organism-based; conditions: time 14.0 day
[12] = Toxicity in C57BL/6 mouse assessed as serum LDH activity at 600 mg/kg/day, ig for 14 days by colorimetric analysis (reference value: 5.96 +/-1.08 U/ml); type: organism-based; conditions: in vivo, po, 336 h, time 14 day
Mus musculus [13] = assay: Anti-inflammatory activity against MOG35-55-induced experimental autoimmune encephalomyelitis C57BL/6 mouse model assessed as fold change in BCL2 gene expression in brain at 600 mg/kg/day, ig for 14 days starting from 12th day of immunization by RT-qPCR analysis relative to control; type: functional; conditions: time 14 day
Mus musculus [14] = assay: Anti-inflammatory activity against MOG35-55-induced experimental autoimmune encephalomyelitis C57BL/6 mouse model assessed as fold change in TNF-alpha gene expression in brain at 300 mg/kg/day, ig for 14 days starting from 12th day of immunization by RT-qPCR analysis relative to control; type: functional; conditions: time 14 day
Mus musculus [15] = assay: Anti-inflammatory activity against MOG35-55-induced experimental autoimmune encephalomyelitis C57BL/6 mouse model assessed as reduction in CCL5 protein expression in brain at 300 to 600 mg/kg/day, ig for 14 days starting from 12th day of immunization by western blot analysis; type: functional, organism-based; conditions: dose 300-600 mg/kg/day, time 14.0 day
Mus musculus [16] = assay: Anti-inflammatory activity against MOG35-55-induced experimental autoimmune encephalomyelitis C57BL/6 mouse model assessed as reduction in CXCL9 protein expression in brain at 300 to 600 mg/kg/day, ig for 14 days starting from 12th day of immunization by western blot analysis; type: functional, organism-based; conditions: dose 300-600 mg/kg/day, time 14.0 day
Mus musculus [17] = assay: Anti-inflammatory activity against MOG35-55-induced experimental autoimmune encephalomyelitis C57BL/6 mouse model assessed as fold change in MBP gene expression in brain at 0.3 mg/kg/day, ig for 14 days starting from 12th day of immunization by RT-qPCR analysis relative to control; type: functional; conditions: time 14 day
Mus musculus [18] = assay: Anti-inflammatory activity against MOG35-55-induced experimental autoimmune encephalomyelitis C57BL/6 mouse model assessed as reduction in EAE symptoms by measuring reduction in clinical score at 0.15 to 0.3 mg/kg/day, ig starting from 12th day of immunization and measured on day 14 post-immunization; type: functional, organism-based; conditions: dose 0.15-0.3 mg/kg/day, time 2.0 day
Mus musculus [19] = assay: Anti-inflammatory activity against MOG35-55-induced experimental autoimmune encephalomyelitis C57BL/6 mouse model assessed as methylation of CpG sites of […] gene promoter in brain at […], ig for 14 days starting from 12th day of immunization by PCR analysis (reference value: 45 +/-7%); type: functional; conditions: time 14 day
Mus musculus [20] = assay: Anti-inflammatory activity against MOG35-55-induced experimental autoimmune encephalomyelitis C57BL/6 mouse model assessed as methylation of CpG sites of IL18 gene promoter in brain at […], ig for 14 days starting from 12th day of immunization by PCR analysis (reference value: 29.2 +/-8%); type: functional; conditions: time 14 day
Mus musculus [21] = assay: Anti-inflammatory activity against MOG35-55-induced experimental autoimmune encephalomyelitis C57BL/6 mouse model assessed as fold change in MBP gene expression in brain at 0.15 mg/kg/day, ig for 14 days starting from 12th day of immunization by RT-qPCR analysis relative to control; type: functional; conditions: time 14 day
Mus musculus [22] = assay: Anti-inflammatory activity against MOG35-55-induced experimental autoimmune encephalomyelitis C57BL/6 mouse model assessed as fold change in YWHAH gene expression in brain at 0.15 mg/kg/day, ig for 14 days starting from 12th day of immunization by RT-qPCR analysis relative to control; type: functional; conditions: time 14 day

CCCCCCCCCCCCCCCCCCCCCCCCC(=O)O[C@H]1CC[C@]2(C)[C@H]3CC=C4[C@@H]5CC(C)(C)CC[C@]5(CO)CC[C@@]4(C)[C@]3(C)CC[C@H]2C1(C)C
fold change (FC) (Mus musculus [1]): 1.92
fold change (FC) (Mus musculus [2]): 1.63
fold change (FC) (Mus musculus [3]): 1.54
fold change (FC) (Mus musculus [4]): 1.76
fold change (FC) (Mus musculus [5]): 1.98
fold change (FC) (Mus musculus [6]): 3.18
Activity (Mus musculus [7]): Active
Activity (Mus musculus [8]): 15.2%
Activity (Mus musculus [9]): 39.8%
fold change (FC) (Mus musculus [10]): 2.8
Activity (Mus musculus [11]): Active
Activity [12]: 5.37 U/ml
fold change (FC) (Mus musculus [13]): 1.68
fold change (FC) (Mus musculus [14]): 1.76
Activity (Mus musculus [15]): Active
Activity (Mus musculus [16]): Active

CCCCCCCCc1ccc(CCC(N)(CO)CO)cc1 [FINGOLIMOD]
fold change (FC) (Mus musculus [17]): 2.28
Activity (Mus musculus [18]): Active
Activity (Mus musculus [19]): 44.9%
Activity (Mus musculus [20]): 29.5%
fold change (FC) (Mus musculus [21]): -1.1
fold change (FC) (Mus musculus [22]): 1.1
